From ChEMBL document CHEMBL5050862, “Compounds for inhibiting ly6k and methods of using same” (2021)
pIC50: −log10 of the molar value. Active and inactive are the calls of the source. The rule behind the calls is not given here.

Legend:
4T1 [1] = assay: Induction of apoptosis in mouse 4T1 cells at 0.1 to 5 uM assessed as activation of caspase-3 measured after 16 hrs by Western blot analysis; format: functional, cell-based; settings: dose 0.1-5 µM
[2] = target: Mothers against decapentaplegic homolog 2/homolog 3 (Homo sapiens) (UniProt P84022+Q15796); assay: Inhibition of TGF-beta1-induced Smad2/3 phopshorylation in human MDA-MB-231 cells at 2 uM measured after 30 mins by Western blot analysis; format: cell-based
4T1 [3] = assay: Down regulation of RhoA in mouse 4T1 cells at 0.1 to 5 uM measured after 16 hrs by Western blot analysis; format: functional, cell-based; settings: dose 0.1-5 µM
MDA-MB-231 [4] = assay: Down-regulation of PD-L1 expression in human MDA-MB-231 cells at 2 uM measured after 30 mins by Western blot analysis; format: functional, cell-based
OVCAR-8 = assay: Antiproliferative activity against human OVCAR-8 cells after 24 hrs by Cell Titer Blue assay; format: functional, cell-based; settings: OVCAR-8, 24 h
E0771 = assay: Antitumor immunity in C57BL/6 mouse xenografted with mouse EO771 cells assessed as reduction in tumor growth at 10 mg/kg, ip administered every 3rd day; format: functional, organism-based; settings: time 3.0 day
4T1 [5] = assay: Effect on total Ly6K levels in mouse 4T1 cells at 0.1 to 5 […] measured by Western blotting analysis; format: functional, cell-based; settings: dose 0.1-5 mM
4T1 [6] = assay: Antitumor activity against mouse 4T1 cells xenografted mouse assessed as decrease in myeloid-derived suppressor cells (MDSCs) in peripheral blood at 50 mg/kg, iv; format: functional; parameters: scale not given: the % may be the effect or the level left
4T1 [7] = assay: Antitumor activity against mouse 4T1 cells allografted in syngenetic BALB/c mouse assessed as tumor growth inhibition at 5 mg/kg, IT(Intratumoral) measured at day 3; format: functional, organism-based; settings: time 3.0 day
4T1 [8] = assay: Induction of apoptosis in mouse 4T1 cells at 0.1 to 5 uM assessed as increase in PARP cleavage measured after 16 hrs by Western blot analysis; format: functional, cell-based; settings: dose 0.1-5 µM
MDA-MB-231 [9] = assay: Antiproliferative activity against human MDA-MB-231 cells at 2 uM assessed as induction of cells death and measured after 24 hrs by Cell Titer Blue assay relative to control; format: functional, cell-based
4T1 [10] = assay: Induction of autophagy in mouse 4T1 cells at 0.1 to 5 uM assessed as activation of LC3B measured after 16 hrs by Western blot analysis; format: functional, cell-based; settings: dose 0.1-5 µM
4T1 [11] = assay: Induction of apoptosis in mouse 4T1 cells at 0.1 to 5 uM assessed as activation of caspase-7 measured after 16 hrs by Western blot analysis; format: functional, cell-based; settings: dose 0.1-5 µM
BT-549 = assay: Antiproliferative activity against human BT-549 cells after 24 hrs by Cell Titer Blue assay; format: functional, cell-based; settings: BT-549, 24 h
MDA-MB-231 [12] = assay: Antiproliferative activity against human MDA-MB-231 cells transfected with LY6K-ShRNA2 at 2 uM assessed as induction of cells death and measured after 24 hrs by Cell Titer Blue assay relative to control; format: functional, cell-based
4T1 [13] = assay: Antitumor activity against mouse 4T1 cells xenografted mouse assessed as decrease in Cd11b and Gr-1-dual positive […] in peripheral blood at 50 mg/kg, iv; format: functional, organism-based
Hs-578T = assay: Antiproliferative activity against human Hs-578T cells after 24 hrs by Cell Titer Blue assay; format: functional, cell-based
[14] = target: T1, Signal transducer and activator of transcription 1-alpha/beta (Homo sapiens) (UniProt P42224); assay: Inhibition of IFN-gamma-induced Stat1 phopshorylation in human MDA-MB-231 cells at 2 uM measured after 30 mins by Western blot analysis; format: cell-based
T1 sequence (whole entry): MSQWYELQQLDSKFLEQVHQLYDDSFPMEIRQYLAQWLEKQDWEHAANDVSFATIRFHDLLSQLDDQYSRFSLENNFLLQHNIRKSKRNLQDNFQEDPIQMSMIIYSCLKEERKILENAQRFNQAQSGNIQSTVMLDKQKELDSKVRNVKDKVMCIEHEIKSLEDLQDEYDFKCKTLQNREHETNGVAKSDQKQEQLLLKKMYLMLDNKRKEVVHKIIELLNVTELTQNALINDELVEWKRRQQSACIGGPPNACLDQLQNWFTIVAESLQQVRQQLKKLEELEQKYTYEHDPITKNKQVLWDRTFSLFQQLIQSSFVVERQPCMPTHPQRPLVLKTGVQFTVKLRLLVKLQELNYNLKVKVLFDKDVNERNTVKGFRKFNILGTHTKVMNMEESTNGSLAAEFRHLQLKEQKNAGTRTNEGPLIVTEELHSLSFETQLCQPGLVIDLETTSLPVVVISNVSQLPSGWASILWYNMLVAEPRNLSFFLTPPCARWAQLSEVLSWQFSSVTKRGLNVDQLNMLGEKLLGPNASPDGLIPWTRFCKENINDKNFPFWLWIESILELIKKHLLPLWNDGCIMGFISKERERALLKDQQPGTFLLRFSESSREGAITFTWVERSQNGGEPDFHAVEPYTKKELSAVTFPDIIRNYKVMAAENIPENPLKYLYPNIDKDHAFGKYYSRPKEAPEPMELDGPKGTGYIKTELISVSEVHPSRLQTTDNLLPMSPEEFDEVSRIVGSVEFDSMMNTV

MDA-MB-231 [15] = assay: Antiproliferative activity against human MDA-MB-231 cells after 24 hrs by Cell Titer Blue assay; format: functional, cell-based; settings: MDA-MB-231, 24 h
4T1 [16] = assay: Antitumor activity against mouse 4T1 cells allografted in syngenetic BALB/c mouse assessed as tumor growth inhibition at 5 mg/kg, IT(Intratumoral) measured at day 11; format: functional, organism-based; settings: time 11.0 day
MDA-MB-231 [17] = assay: Antiproliferative activity against human MDA-MB-231 cells transfected with LY6K-ShRNA2 at 100 uM assessed as induction of cells death and measured after 24 hrs by Cell Titer Blue assay relative to control; format: functional, cell-based
MDA-MB-231 [18] = assay: Antiproliferative activity against human MDA-MB-231 cells at 100 uM assessed as induction of cells death and measured after 24 hrs by Cell Titer Blue assay relative to control; format: functional, cell-based

Chain of Mothers against decapentaplegic homolog 2/homolog 3 (Homo sapiens) (P84022 whole entry, looked up): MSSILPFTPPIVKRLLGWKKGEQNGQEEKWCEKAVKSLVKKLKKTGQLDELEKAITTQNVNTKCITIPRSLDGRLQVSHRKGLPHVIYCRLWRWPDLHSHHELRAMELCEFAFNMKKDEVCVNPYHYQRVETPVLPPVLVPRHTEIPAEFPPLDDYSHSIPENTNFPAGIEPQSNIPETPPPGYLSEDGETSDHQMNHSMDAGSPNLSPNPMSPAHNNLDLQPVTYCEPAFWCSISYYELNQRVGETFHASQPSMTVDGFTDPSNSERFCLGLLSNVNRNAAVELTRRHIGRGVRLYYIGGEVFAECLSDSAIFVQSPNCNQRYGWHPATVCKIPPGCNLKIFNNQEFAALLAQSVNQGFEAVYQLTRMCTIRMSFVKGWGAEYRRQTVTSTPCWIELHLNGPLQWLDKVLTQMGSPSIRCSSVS
Chain of Mothers against decapentaplegic homolog 2/homolog 3 (Homo sapiens) (Q15796 whole entry, looked up): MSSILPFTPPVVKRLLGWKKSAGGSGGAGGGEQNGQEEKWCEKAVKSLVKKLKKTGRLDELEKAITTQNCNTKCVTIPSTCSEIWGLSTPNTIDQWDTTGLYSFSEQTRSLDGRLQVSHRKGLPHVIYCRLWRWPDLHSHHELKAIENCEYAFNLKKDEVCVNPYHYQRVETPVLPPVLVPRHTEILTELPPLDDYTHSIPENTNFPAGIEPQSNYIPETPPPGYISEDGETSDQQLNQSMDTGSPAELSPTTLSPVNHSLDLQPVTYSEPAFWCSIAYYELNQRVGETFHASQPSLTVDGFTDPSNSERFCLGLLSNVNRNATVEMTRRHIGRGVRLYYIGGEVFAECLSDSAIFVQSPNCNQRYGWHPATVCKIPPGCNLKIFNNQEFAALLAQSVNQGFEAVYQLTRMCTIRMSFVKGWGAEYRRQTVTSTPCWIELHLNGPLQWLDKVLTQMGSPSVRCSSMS

SMILES: CCS(=O)(=O)Nc1ccc(Nc2c3ccccc3nc3ccccc23)c(OC)c1
- Activity (4T1 [1]): Active
- Activity [2]: Active
- Activity (4T1 [3]): Active
- Activity (MDA-MB-231 [4]): Active
- pIC50 (OVCAR-8): 5.38
- Activity (E0771): Active
- Activity (4T1 [5]): Active
- Activity (4T1 [6]): 90%
- Activity (4T1 [7]): Active
- Activity (4T1 [8]): Active
- Activity (MDA-MB-231 [9]): Active
- Activity (4T1 [10]): Active
- Activity (4T1 [11]): Active
- pIC50 (BT-549): 5.12
- Activity (MDA-MB-231 [12]): inactive
- Activity (4T1 [13]): Active
- pIC50 (Hs-578T): 5.14
- Activity [14]: Active
- pIC50 (MDA-MB-231 [15]): 5.25

SMILES: Oc1ccc(Cc2ccc(Cl)cc2)c(O)c1
- Activity (4T1 [16]): Active
- Activity [2]: inactive
- Activity (MDA-MB-231 [17]): Active
- Activity (MDA-MB-231 [4]): inactive
- Activity (MDA-MB-231 [18]): Active
- Activity [14]: inactive
